Measurements: article PMC6522510 (Nature Communications, 2019)

Key:
Design in all cases: species or system AML cell lines (8); Primary HTS, single concentration about 10 uM, Cell Titer Glo viability; log10 luminescence, per cent inhibition relative to cycloheximide control
Settings in all cases: 72 h, relative to cycloheximide control, log10 luminescence; inhibitor
U937 = system: U937
CMS = system: CMS
ML-2 = system: ML-2
CHRF288-11 = system: CHRF288-11
MOLM-13 = system: MOLM-13
MV4-11 = system: MV4-11
CMK = system: CMK
M07e = system: M07e

SMILES	U937 %inh (U937) [%]	CMS %inh (CMS) [%]	ML-2 %inh (ML-2) [%]	CHRF288-11 %inh (CHRF288-11) [%]	MOLM-13 %inh (MOLM-13) [%]	MV4-11 %inh (MV4-11) [%]	CMK %inh (CMK) [%]	M07e %inh (M07e) [%]
CCn1c(-c2nonc2N)nc2c(C#CC(C)(C)O)ncc(OC3CCNCC3)c21 [SJ000573340-1, N2972-34-A1]	50.59	5.982	4.911	8.441	25.8	14.73	1.4	6.128
CCN(CC)Cc1ccc(Nc2nccc(-c3cnn4ncccc34)n2)cc1 [SJ000573341-1, U20497/10/4]	77.76	102.8	56.99	61.01	89.9	77.95	90.23	122.1
CCn1c(-c2nonc2N)nc2ccc(F)cc21 [SJ000573344-1, U17602/50/1]	-1.756	-1.218	-0.6145	4.16	3.561	-0.453	-0.9351	1.126
O=C(NCC1CC1)c1ccc(-c2cccc(C(=O)NC3CC3)c2)cc1 [SJ000573345-1, R5419/155/1]	0.894	0.2631	0.3479	-1.419	4.094	3.005	6.153	0.9268
Cc1ccc(C(=O)NC2CCCCC2)cc1-c1ccc(C(=O)NCC2CC2)cc1 [SJ000573346-1, R5311/184/6]	4.929	-0.3831	-1.695	2.896	6.287	6.399	5.045	-0.328
Cc1ccc2c(-c3ccnc(Nc4ccc5c(c4)OCCO5)n3)c(-c3ccc(C(F)(F)F)cc3)nn2n1 [SJ000573347-1, U19201/9/2]	1.52	-0.8147	-1.284	4.555	1.079	-1.366	-1.247	-1.129
FC(F)(F)CNc1nccc(-c2cnn3ncccc23)n1 [SJ000573348-1, U14929/198/1]	21.18	9.976	3.221	8.25	10.23	26.7	5.414	2.938
NC(=O)c1ccc2c(-c3ccnc(NCCCO)n3)c(-c3ccc(F)cc3)nn2c1 [SJ000573349-1, U15445/74/1]	3.919	-1.938	0.07673	6.72	4.269	0.006279	3.481	8.993
CC(=O)Nc1cccc(C#Cc2cncnc2Nc2ccc(OCc3cccc(F)c3)c(Cl)c2)n1 [SJ000573352-1, U17741/29/4]	0.4059	-3.127	-1.648	-2.536	1.614	2.175	2.98	-1.039
CCc1ccc(Oc2nccc(-c3c(-c4ccc(F)cc4)ncn3C3CCNCC3)n2)cc1 [SJ000573353-1, JB42215-197B1]	8.087	2.88	3.582	58.08	6.147	7.571	9.775	7.09
Cc1cc(-c2ccccn2)cc(C)c1/C=C/c1cncc(-c2nn[nH]n2)c1 [SJ000573354-1, U12068/128/1]	1.124	-3.491	-0.7476	-4.309	1.519	-0.7703	0.3268	-1.071
Nc1nonc1-c1nc2cnccc2n1C1CCCCC1 [SJ000573355-1, SD100950-004A1]	17.92	13.87	31.12	15.53	7.234	40.98	8.293	-4.008
O=C1Nc2ccccc2/C1=C/Nc1ccc2[nH]c(=O)[nH]c2c1 [SJ000573356-1, U7003/61/1]	2.265	0.8831	0.9059	4.722	61.37	43.08	1.313	4.187
Nc1nc(-c2ccc(F)cc2)c(-c2ccc3ncccc3n2)s1 [SJ000573357-1, R5931/120/1]	3.577	0.9588	-0.2788	7.658	3.49	-0.2605	-0.6603	0.3459
CCS(=O)(=O)c1ccc(OC)c(Nc2ncc(-c3cccc(OC)c3)o2)c1 [SJ000573358-1, U15747/93/1]	5.914	-1.141	1.703	1.123	73.64	70.44	8.053	-2.224
CCCCOCCOc1nc(-c2ccc(C(=O)O)c(F)c2)sc1C [SJ000573474-2, AC 261066]	6.265	12.33	0.9412	2.475e-05	4.751	12.22	1.422	1.286
CC1(C)CCC(C)(C)c2cc(C3(c4ccc5cc(C(=O)O)ccc5c4)SCCS3)ccc21 [SJ000573478-2, MM 11253]	1.985	0.01284	0.2271	-4.46	2.534	1.741	-3.669	1.802
CCOC(=O)C1=C(N)Oc2ccc(Br)cc2[C@H]1[C@H](C#N)C(=O)OCC [SJ000574273-1, HA14-1]	6.381	0.956	-0.1514	-0.6917	2.194	14.02	4.094	0.5476
CCCS(=O)(=O)Nc1ccc(F)c(C(=O)c2c[nH]c3ncc(-c4ccc(Cl)cc4)cc23)c1F [SJ000574274-1, VEMURAFENIB | PLX-4032 | R-7204 | RG-7204 | RO-5185426 | PLX4032 | RG7204 | VEMURAFENIB (PLX4032, RG7204)]	-0.9604	1.477	-0.6517	-2.721	-2.361	-4.805	1.427	-0.8043
NC(=O)c1ccc(-c2nc(-c3ccc4c(c3)OCO4)c(-c3ccccn3)[nH]2)cc1 [SJ000574283-1, SB-431542 | SB431542]	-2.319	0.4519	0.07602	-7.63	3.22	0.325	-2.116	-4.824
CC(C)(C)c1cnc(CSc2cnc(NC(=O)C3CCNCC3)s2)o1 [SJ000574284-1, BMS-387032 | SNS-032]	69.97	97.36	59.52	54.06	98.7	73.5	91.14	111.6
Cc1cc(Nc2cc(N3CCN(C)CC3)nc(Sc3ccc(NC(=O)C4CC4)cc3)n2)n[nH]1 [SJ000574290-1, TOZASERTIB | VX-680 | MK-0457 | VX6 | VX-680 | TOZASERTIB | MK-0457 | | VX-680 (TOZASERTIB, MK-0457)]	19.84	15.77	25.05	110.2	88.48	64.96	63.64	61.91
